Measured values as given in patent publication US10077241B2 (Janssen Pharmaceutica NV, priority 2014, dated 2018).
Counter-ions that a name gives are not always drawn.

Columns and labels:
[1] = biological target: T1, TGR5 (NCI-H716 cell line) (Homo sapiens, UniProt Q8TDU6); test: NCI-H716 cAMP Agonist EC50 Determination
T1 sequence (Q8TDU6 1-330): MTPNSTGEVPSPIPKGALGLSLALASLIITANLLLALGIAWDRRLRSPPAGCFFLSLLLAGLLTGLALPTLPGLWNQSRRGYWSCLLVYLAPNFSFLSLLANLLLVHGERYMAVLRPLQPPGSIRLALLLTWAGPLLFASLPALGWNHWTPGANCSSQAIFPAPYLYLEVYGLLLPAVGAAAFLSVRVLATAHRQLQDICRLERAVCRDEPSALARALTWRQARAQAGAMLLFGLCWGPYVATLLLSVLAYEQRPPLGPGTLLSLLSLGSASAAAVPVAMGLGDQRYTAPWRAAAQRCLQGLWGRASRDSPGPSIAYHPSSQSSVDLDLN
Experimental: Cells were cultured in suspension using RPM containing: 10% HI FBS, and 1× Penn/Strep and were cryostored (1E7 cells/vial in 5% DMSO).
A Normalized signal (NS) is generated by the Envision for each well ((Read 1/Read 2)×10,000).
The data from the Envision were imported to an Excel worksheet. nM cAMP is calculated for each well from the cAMP standard curves located on each plate by first calculating the slope and deriving the intercept (b).
[formula] [formula] [formula] EC50 values were determined from a 4-point fit (Hill equation) of a single 11-point compound dosing.

[2] = biological target: T2, TGR5 (STC1 cell line) (Mus musculus, UniProt Q80SS6); test: STC1 cAMP Agonist EC50 Determination
T2 sequence (Q80SS6 1-329): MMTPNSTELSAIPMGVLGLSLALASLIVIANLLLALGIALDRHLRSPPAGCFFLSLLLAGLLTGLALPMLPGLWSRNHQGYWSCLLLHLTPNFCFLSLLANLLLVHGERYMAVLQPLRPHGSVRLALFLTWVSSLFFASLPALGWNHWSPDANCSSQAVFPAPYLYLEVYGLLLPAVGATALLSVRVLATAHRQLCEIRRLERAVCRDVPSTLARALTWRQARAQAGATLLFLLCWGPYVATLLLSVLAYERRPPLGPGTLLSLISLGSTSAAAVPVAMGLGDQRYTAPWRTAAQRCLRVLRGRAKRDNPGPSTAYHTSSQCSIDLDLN
Experimental: Cell stocks were maintained and grown in a sub-confluent state using standard cell culture procedures. The day before the experiment, the cells were harvested with non-enzymatic cell dissociation buffer and resuspended in complete growth media at 4E5 c/ml. […] The seeded plates were incubated overnight at 37° C.
On the day of the experiment, Assay Buffer containing: HBSS with Ca^2+and Mg^2+; 5 μM HEPES; 0.1% BSA; and, 0.5 μM IBMX was prepared. The growth medium was washed from the cell plates and replaced with 20 μL of Assay Buffer. […] The reaction was stopped by the addition of 20 μL 0.1% Formic Acid to all wells. Sixty minutes later 30 μL 3 M deuterated AMP was added to all wells (as a control for volume addition to the mass spec). Plates were mixed on a plate shaker for 1 min and centrifugated (5 min 3000 RPMs no brakes).
Plates were run on a 4000 QTrap triple-quadrapole Mass spectrometer in positive ion mode coupled with a Biocius RapidFire 300is. […] Two ions (cAMP and deuterated AMP were measured using Multiple Reaction Monitoring (MRM) in positive ion mode and the area under the curve (AUC) was determined for each of the ions.
The data from the Mass Spec/Rapid Plate AUC for cAMP and deuterated AMP were imported to an Excel worksheet. A Normalized signal (NS) was generated for each well=(cAMP AUC for the well/deut AMP AUC for the well)*average deut AMP AUC for the plate). nM cAMP was calculated for each well from the cAMP standard curves located on each plate by first calculating the slope and deriving the intercept (b).
EC50 values were determined from a 4-point fit (Hill equation) of a single 11-point compound dosing.

Row | SMILES | EC50 [1] [µM] | EC50 [2] [µM]
1 | COc1cc(C2CCCc3nc(SCc4c(F)cccc4Cl)n(-c4ccc(F)c(F)c4F)c32)ccc1Cl (stereo not drawn) [Example 9, 7-(4-chloro-3-methoxyphenyl)-2-((2-chloro-6-fluorobenzyl)thio)-1-(2,3,4-trifluorophenyl)-4,5,6,7-tetrahydro-1H-benzo[d]imidazole] | > 50 | 9.86
2 | COc1cc(C2CCCc3nc(SCc4c(F)cccc4Cl)n(-c4cc(F)c(F)c(F)c4)c32)ccc1Cl (stereo not drawn) [Example 10, 7-(4-chloro-3-methoxyphenyl)-2-((2-chloro-6-fluorobenzyl)thio)-1-(3,4,5-trifluorophenyl)-4,5,6,7-tetrahydro-1H-benzo[d]imidazole] | > 50 | 0.79
3 | COc1cc(C2CCCc3nc(SCc4c(F)cccc4Cl)n(-c4cc(F)c(F)cc4F)c32)ccc1Cl (stereo not drawn) [Example 11, 7-(4-chloro-3-methoxyphenyl)-2-((2-chloro-6-fluorobenzyl)thio)-1-(2,4,5-trifluorophenyl)-4,5,6,7-tetrahydro-1H-benzo[d]imidazole] | > 50 | 3.71
4 | COc1cc(C2CCCc3nc(SCc4c(F)cc(C(=O)O)cc4F)n(-c4ccc(F)cc4)c32)ccc1Cl (stereo not drawn) [Example 12, 4-((7-(4-chloro-3-methoxyphenyl)-1-(4-fluorophenyl)-4,5,6,7-tetrahydro-1H-benzo[d]imidazol-2-ylthio)methyl)-3,5-difluorobenzoic acid trifluoroacetic acid] | > 50 | 19.7
5 | COc1cc(C2CCCc3nc(SCc4c(F)cc(C(=O)NCC[N+](C)(C)C)cc4F)n(-c4ccc(F)cc4)c32)ccc1Cl (stereo not drawn) [Example 13, 2-(4-((7-(4-chloro-3-methoxyphenyl)-1-(4-fluorophenyl)-4,5,6,7-tetrahydro-1H-benzo[d]imidazol-2-ylthio)methyl)-3,5-difluorobenzamido)-N,N,N-trimethylethanaminium 2,2,2-trifluoroacetate] | > 50 | 8.04
6 | COc1cc(C2CCCc3nc(SCc4c(F)cccc4C#N)n(-c4ccc(F)cc4)c32)ccc1Cl (stereo not drawn) [Example 14, 2-([[7-(4-chloro-3-methoxyphenyl)-1-(4-fluorophenyl)-4,5,6,7-tetrahydro-1H-1,3-benzodiazol-2-yl]sulfanyl]methyl)-3-fluorobenzonitrile] | > 50 | 0.53
7 | COc1cc(C2CCCc3nc(SCc4c(F)cccc4C(F)(F)F)n(-c4ccc(F)cc4)c32)ccc1Cl (stereo not drawn) [Example 15, 7-(4-chloro-3-methoxyphenyl)-2-([[2-fluoro-6-(trifluoromethyl)phenyl]methyl]sulfanyl)-1-(4-fluorophenyl)-4,5,6,7-tetrahydro-1H-1,3-benzodiazole] | > 50 | 13.3
8 | COc1cc(C2CCCc3nc(SCc4c(F)ccc(F)c4Cl)n(-c4ccc(F)cc4)c32)ccc1Cl (stereo not drawn) [Example 20, 2-[[(2-chloro-3,6-difluorophenyl)methyl]sulfanyl]-7-(4-chloro-3-methoxyphenyl)-1-(4-fluorophenyl)-4,5,6,7-tetrahydro-1H-1,3-benzodiazole] | > 50 | 0.51
9 | COc1cc(C2CCCc3nc(SCc4c(F)cc(S(N)(=O)=O)cc4F)n(-c4ccc(F)cc4)c32)ccc1Cl (stereo not drawn) [Example 21a, 4-((7-(4-chloro-3-methoxyphenyl)-1-(4-fluorophenyl)-4,5,6,7-tetrahydro-1H-benzo[d]imidazol-2-ylthio)methyl)-3,5-difluorobenzenesulfonamide] | 48.4 | 0.69
10 | COc1cc(C2CCCc3nc(SCc4c(F)cc(S(=O)(=O)NS(C)(=O)=O)cc4F)n(-c4ccc(F)cc4)c32)ccc1Cl (stereo not drawn) [Example 21b, 4-((7-(4-chloro-3-methoxyphenyl)-1-(4-fluorophenyl)-4,5,6,7-tetrahydro-1H-benzo[d]imidazol-2-ylthio)methyl)-3,5-difluoro-N-(methylsulfonyl)benzenesulfonamide] | > 50 | 8.12
11 | COc1cc(C2CCCc3nc(SCc4c(F)cc(S(=O)(=O)NCCC[N+](C)(C)C)cc4F)n(-c4ccc(F)cc4)c32)ccc1Cl (stereo not drawn) [Example 22, 3-(4-((7-(4-chloro-3-methoxyphenyl)-1-(4-fluorophenyl)-4,5,6,7-tetrahydro-1H-benzo[d]imidazol-2-ylthio)methyl)-3,5-difluorophenylsulfonamido)-N,N,N-trimethylpropan-1-aminium 2,2,2-trifluoroacetate] | > 50 | 32.6
12 | COc1cc(C2CCCc3nc(SCc4c(F)cc(OCCOCCOCCOCCO)cc4F)n(-c4ccc(F)cc4)c32)ccc1Cl (stereo not drawn) [Example 23, 1-[4-([[7-(4-chloro-3-methoxyphenyl)-1-(4-fluorophenyl)-4,5,6,7-tetrahydro-1H-1,3-benzodiazol-2-yl]sulfanyl]methyl)-3,5-difluorophenyl]-1,4,7,10-tetraoxadodecan-12-ol] | > 50 | 0.66
13 | COc1cc(C2CCCc3nc(SCc4c(F)cc(OCCN(C)C)cc4F)n(-c4ccc(F)cc4)c32)ccc1Cl (stereo not drawn) [Example 24, 2-(4-((7-(4-chloro-3-methoxyphenyl)-1-(4-fluorophenyl)-4,5,6,7-tetrahydro-1H-benzo[d]imidazol-2-ylthio)methyl)-3,5-difluorophenoxy)-N,N-dimethylethanamine Trifluoromethylacetic acid salt] | > 50 | 3.92
14 | COc1cc(C2CCCc3nc(SCc4c(F)cc(OCc5nnn[nH]5)cc4F)n(-c4ccc(F)cc4)c32)ccc1Cl (stereo not drawn) [Example 30, 7-(4-chloro-3-methoxyphenyl)-2-([[2,6-difluoro-4-(1H-1,2,3,4-tetrazol-5-ylmethoxy)phenyl]methyl]sulfanyl)-1-(4-fluorophenyl)-4,5,6,7-tetrahydro-1H-1,3-benzodiazole] | > 50 | 0.96
15 | COc1cc(C2CCCc3nc(SCc4c(F)ccc(OCCN(C)C)c4F)n(-c4ccc(F)cc4)c32)ccc1Cl (stereo not drawn) [Example 31, [2-[3-([[17-(4-chloro-3-methoxyphenyl)-1-(4-fluorophenyl)-4,5,6,7-tetrahydro-1H-1,3-benzodiazol-2-yl]sulfanyl]methyl)-2,4-difluorophenoxy]ethyl]dimethylamine] | 4.44 | 4.1
16 | COc1cc(C2CCCc3nc(SCc4c(F)ccc(OCCOCCOCCN(C)C)c4F)n(-c4ccc(F)cc4)c32)ccc1Cl (stereo not drawn) [Example 32, 7-(4-chloro-3-methoxyphenyl)-2-([[3-(2-[2-[2-(dimethylamino)ethoxy]ethoxy]ethoxy)-2,6-difluorophenyl]methyl]sulfanyl)-1-(4-fluorophenyl)-4,5,6,7-tetrahydro-1H-1,3-benzodiazole hydrochloride] | 16.9 | 1.38
17 | COc1cc(C2CCCc3nc(SCc4c(F)cc(OCCOCCOCCN(C)C)cc4F)n(-c4ccc(F)cc4)c32)ccc1Cl (stereo not drawn) [Example 33, 2-(2-(2-(4-((7-(4-chloro-3-methoxyphenyl)-1-(4-fluorophenyl)-4,5,6,7-tetrahydro-1H-benzo[d]imidazol-2-ylthio)methyl)-3,5-difluorophenoxy)ethoxy)ethoxy)-N,N-dimethylethanamine hydrochloride] | > 50 | 4.9
18 | COc1cc(C2CCCc3nc(SCc4c(F)cc(OCCOCCN(C)C)cc4F)n(-c4ccc(F)cc4)c32)ccc1Cl (stereo not drawn) [Example 34, (2-[2-[4-([[7-(4-chloro-3-methoxyphenyl)-1-(4-fluorophenyl)-4,5,6,7-tetrahydro-1H-1,3-benzodiazol-2-yl]sulfanyl]methyl)-3,5-difluorophenoxy]ethoxy]ethyl)dimethylamine hydrochloride] | > 50 | 3.9
19 | COc1cc(C2CCCc3nc(SCc4c(F)ccc(OCCOCCN(C)C)c4F)n(-c4ccc(F)cc4)c32)ccc1Cl (stereo not drawn) [Example 35, (2-[2-[3-([[7-(4-chloro-3-methoxyphenyl)-1-(4-fluorophenyl)-4,5,6,7-tetrahydro-1H-1,3-benzodiazol-2-yl]sulfanyl]methyl)-2,4-difluorophenoxy]ethoxy]ethyl)dimethylamine hydrochloride] | 9.3 | 3.15
20 | COc1cc(C2CCCc3nc(SCc4c(F)cc(C#N)cc4F)n(-c4ccc(F)cc4)c32)ccc1Cl (stereo not drawn) [Example 36, 4-([[7-(4-chloro-3-methoxyphenyl)-1-(4-fluorophenyl)-4,5,6,7-tetrahydro-1H-1,3-benzodiazol-2-yl]sulfanyl]methyl)-3,5-difluorobenzonitrile] | > 50 | 1.34
21 | COc1cc(C2CCCc3nc(SCc4c(F)cc(/C=C5\SC(=O)NC5=O)cc4F)n(-c4ccc(F)cc4)c32)ccc1Cl (stereo not drawn) [Example 37, (5Z)-5-[[4-([[7-(4-chloro-3-methoxyphenyl)-1-(4-fluorophenyl)-4,5,6,7-tetrahydro-1H-1,3-benzodiazol-2-yl]sulfanyl]methyl)-3,5-difluorophenyl]methylidene]-1,3-thiazolidine-2,4-dione] | > 50 | 14.9
